The values that follow come from patent US9944607B2, “Thiohydantoin derivatives and uses thereof” (Whitehead Institute for Biomedical Research, priority 2012, dated 2018).

A word on the IC50: it is the concentration that gives 50% inhibition.

Data set [1] deals with Saccharomyces cerevisiae W303. The data set can be described thus: Secondary S. cerevisiae inhibition in glycerol media (OD600). The format is cell-based. To be noted: for IC50: Saccharomyces cerevisiae. From the text:
(§1) Cell Lines. • Candida albicans CaCi-2; a drug-resistant clinical isolate was provided by the Whitehead Institute (Redding et al., Clin. Infect. Dis. 1994, 18(2):240-2). This strain was used for the primary assay. • Candida albicans CaCi-17; a strongly drug-resistant clinical isolate was provided by the Whitehead Institute (Redding et al., Clin. Infect. Dis. 1994, 18(2):240-2). This strain was used for the primary assay • Saccharyomyces cerevisiae W303-1a (ATCC 208352); a well-characterized Saccharomyces strain used for determination of glycolytic vs. respiratory metabolism, as well as in the mitochondrial disruption assay. • Candida glabrata (ATCC 2001); used for determination of glycolytic vs. respiratory metabolism. • NIH-3T3 mammalian fibroblasts (ATCC; CRL no.1658); used for mammalian toxicity assays. […]
(§2) Saccharomyces, while not a major human pathogen, is a useful lab model with well-developed genetic tools available. Candida glabrata is an increasingly prominent clinical problem for immune-compromised patients but with fewer genetic tools available with which to study it. These organisms can utilize alternative metabolic pathways to support growth and survival depending on the carbon source. By comparing the concentration-dependent inhibition of yeast growth in glycerol relative to glucose media, a quantitative assessment of a compound's ability to disrupt respiration can be determined. […].
Clear, flat bottom, black 384-well plates (Corning Catalog no. 3712BC; Lot no. 35808016); Amphotericin B (Sigma Catalog no. A2411) 15 mM stock solution in DMSO; Pen/Strep (Gibco Catalog no. 10378-016; Lot no21040170) 100× in PBS.
Synthetic defined growth medium. Complete Supplement Mixture; (Sunrise Science, Catalog No. 1001-100); Yeast Nitrogen Base without ammonium sulfate (MP Biomedicals, Catalog No. 4027-012); Glycerol (Sigma Catalog No. G-9012). • Prepare medium by dissolving 0.79 g Complete Supplement Mixture and 1.7 g Yeast Nitrogen Base in 800 mL water. • Add 20 mL of glycerol. Adjust final volume to 1000 mL. Filter sterilize.
Fungal Inoculum. Test Strains: C. glabrata (ATCC 2001) and Saccharomyces cerevisiae W303. • Inoculate 100 μL of yeast from cryopreserved stock into 250 mL shaker flask containing 20 mL growth medium. Shake at 30° C. overnight (about 16 hours). • Read OD 600 of 1 mL of fungal culture in a cuvette using a standard optical density reader (Eppendorf BioPhotometer Plus), with growth medium as a background blank. • Dilute to desired volume of fungal inoculum to produce an OD600 reading of 0.005 (S. cerevisiae) or 0.004 (C. glabrata).
(§3) Procedures • Use a Thermo Combi nL to dispense 20 μL/well of assay media into all wells. • Add 2 μL of Amphotericin B to control wells. • Pin 100 nL of test compound from compound plates into assay plates using a CyBi-Well pin tool. • Dispense 20 μL/well of culture into the assay media in all wells. • Incubate the plates in a humidified (90% humidity) Liconic incubator at 37° C. without agitation for 48 hours. • Shake plates briefly. • Read OD600 of wells on a standard plate reader as measure of relative fungal growth. Envision (Perkin Elmer) plate reader settings: Ex Photometric 600, Top read. Secondary Glucose Assay Protocol (AID 623971, 623967, 624013, 624025) Materials and Reagents

In data set [2] the test system is C. glabrata (ATCC 2001). The data set can be described thus: Secondary C. glabrata inhibition in glucose media (OD600). The format is cell-based, Candida glabrata. To be noted: Nakaseomyces glabratus.
Source text: as §1, §2, §3
(§4) Clear, flat bottom, black 384-well plates (Corning, Catalog No. 3712BC; Lot No. 35808016); Amphotericin B (Sigma, Catalog no. A2411) 15 mM stock solution in DMSO; Pen/Strep (Gibco, Catalog No. 10378-016; Lot no21040170) 100× in PBS.
(§5) Synthetic defined growth medium. Complete Supplement Mixture; (Sunrise Science, Catalog No. 1001-100); Yeast Nitrogen Base without ammonium sulfate (MP Biomedicals, Catalog No. 4027-012); Glucose (Sigma, Catalog No. G7021). • Prepare medium by dissolving 0.79 g of Complete Supplement Mixture and 1.7 g of Yeast Nitrogen Base in 800 mL of water. • Add 20 g of glucose. Adjust final volume to 1000 mL. Filter sterilize.
(§6) Fungal Inoculum. Test Strains: C. glabrata (ATCC 2001) and Saccharomyces cerevisiae W303. • Inoculate […] of yeast from cryopreserved stock into a 250 mL shaker flask containing 20 mL of growth medium. Shake at 30° C. overnight (about 16 hours). • Read OD 600 of 1 mL of fungal culture in a cuvette using a standard optical density reader (Eppendorf BioPhotometer Plus), with growth medium as a background blank. • Dilute to desired volume of fungal inoculum to produce an OD600 reading of 0.005 (S. cerevisiae) or 0.004 (C. glabrata).
as §3, with “read. 4.5.” for “read.”, “Mitochondrial Disruption” for “Glucose”, “Assay” for “Assay Protocol”, “No. 624062” for “623971, 623967, 624013, 624025) Materials”, “624068)” for “Reagents”

Data set [3] has as its system Candida albicans CaCi-2. The data set can be described thus: Primary assay: C. albicans CaCi-2 growth inhibition (Alamar Blue). The settings on record: for IC50: Candida albicans. The class given is cell-based. A general note: Alamar Blue is a resazurin reagent that responds to reducing activity.
The subject of data set [4] is Saccharomyces cerevisiae W303. In words: Secondary S. cerevisiae inhibition in glucose media (OD600). The format is cell-based. To be noted: Saccharomyces cerevisiae.
Source text: as §1, §2, §3, §4, §5, §6
as §3, with “read. 4.5.” for “read.”, “Mitochondrial Disruption” for “Glucose”, “Assay” for “Assay Protocol”, “No. 624062” for “623971, 623967, 624013, 624025) Materials”, “624068)” for “Reagents”

For data set [5], the system named is Candida albicans CaCi-2. The data set can be described thus: Colony counts over time, C. albicans CaCi-2 in RPMI (FIG. 15). The format is cell-based. To be noted: colonies counted after 24 and 48 hours. On the procedure:
[…] The CaCi-2 strain was inoculated into RPMI media at 10^3 CFU/mL in the presence or absence of 5 μM I-B-4 (ML316) and 32 ug/mL fluconazole. Colonies were plated from the cultures after 24 and 48 hours and counted.

Data set [6] concerns the target bovine bc1 complex (Bos taurus, UniProt P00157). The settings on record: read-out: IC50, isolated bovine bc1 complex; studies by Trumpower et al.; cited from earlier work.

SMILES strings stand for the structures. Read-outs that look alike come from different tables or passages of the source.

Regarding `CCOC(=O)N1C(=O)C2(CCCCC2)N(c2ccc(C)cc2)C1=S` [compound 3889161], the half-maximal inhibitory concentration (IC50) in data set [1] (W303, 48 h, read-out: Growth Inhibition Activity, IC50 (μM), S. cerevisiae (n = 3) On glycerol) is 0.011 µM; in data set [2] (ATCC2001, 48 h, read-out: Growth Inhibition Activity, IC50 (μM), C. glabrata (n = 3) On glucose) it was more than 3 µM; in data set [3] (CACI2, 48 h, read-out: Growth Inhibition Activity, IC50 (μM), C. albicans (n = 3) CaCi-2) it was 0.3 µM; in data set [4] (W303, 48 h, read-out: Growth Inhibition Activity, IC50 (μM), S. cerevisiae (n = 3) On glucose) it was more than 3 µM.
`CCOC(=O)N1C(=O)C2(CCCCC2)N(c2cccc(C)c2)C1=S` [compound 56604823]: the concentration for half-maximal inhibition (IC50) was 0.019 µM in data set [1] (W303, Table 8, n = 3, glycerol media, 48 hours, tested up to 3 μM, read-out: Growth Inhibition Activity, IC50 (μM), S. cerevisiae (n = 3) On glycerol); more than 3 µM in data set [2] (ATCC2001, Table 8, n = 3, glucose media, 48 hours, tested up to 3 μM, read-out: Growth Inhibition Activity, IC50 (μM), C. glabrata (n = 3) On glucose); 0.2 µM in data set [3] (CACI2, Table 4, n = 3, 48 hours, tested up to 26 μM, read-out: Growth Inhibition Activity, IC50 (μM), C. albicans (n = 3) CaCi-2); more than 3 µM in data set [4] (W303, Table 8, n = 3, glucose media, 48 hours, tested up to 3 μM, read-out: Growth Inhibition Activity, IC50 (μM), S. cerevisiae (n = 3) On glucose).
Take `CCOC(=O)N1C(=O)C2(CCCCC2)N(c2ccc(F)cc2)C1=S` [CID 56604860, Ethyl 1-(4-fluorophenyl)-4-oxo-2-thioxo-1,3-diazaspiro[4.5]decane-3-carboxylate]: the “Reduction in potency when glucose is available instead of glycerol, S. cerevisiae” value in data set [1] is listed as “greater than 250 fold”. For the same compound, the concentration for half-maximal inhibition (IC50) in data set [1] (W303, read-out: Growth inhibition of S. cerevisiae on glycerol IC50) was 0.004 µM; in data set [2] (ATCC2001, read-out: Growth inhibition of C. glabrata on glucose IC50) it was more than 3 µM; in data set [4] (W303, read-out: Growth inhibition of S. cerevisiae on glucose IC50), more than 3 µM. In addition, the “Fold Selective (Glucose IC50/Glycerol IC50), S. cerevisiae” value in data set [1] (Table 13) is given as more than 750x. Moreover, the “Cytotoxicity to fluconazole-resistant C. albicans CaCi-2, compound alone” value in data set [5] (5 μM I-B-4) was “cytotoxic”. Besides, the “Cytotoxicity to fluconazole-resistant C. albicans CaCi-2, combination with fluconazole (FCZ)” value in data set [5] (5 μM I-B-4 and 32 ug/mL fluconazole) is “cytotoxic”. Further, the “Fold Selective (Anti-target IC50/Target IC50), fibroblast toxicity vs CaCi-2 growth inhibition” value in data set [3] (Table 12) is given as more than 650x.
In the case of `C/C=C/C1[C@H]2C[C@@H](C)CC[C@@H]2C(C)=C[C@H]1C(=O)c1c(O)c(-c2ccc(O)cc2)c[nH]c1=O` (stereo partly drawn) [ilicicolin H, reference compound], the IC50 in data set [1] (W303, figure legends and Tables 9, 10, 13, AID 623969, read-out: Growth inhibition of S. cerevisiae on glycerol IC50) is 0.03 µM; in data set [2] (ATCC2001, figure legends and Tables 9, 10, 13, AID 623967, read-out: Growth inhibition of C. glabrata on glucose IC50), more than 3 µM; in data set [3] (CACI2, Tables 9, 10, 12, AID 623899, read-out: C. albicans CaCi-2 growth inhibition IC50), more than 3 µM; in data set [6], 200 nM; in data set [4] (W303, figure legends and Tables 9, 10, 13, AID 623971, read-out: Growth inhibition of S. cerevisiae on glucose IC50), more than 3 µM.
